Results reported in PMC11096368, “Transcriptomic signature, bioactivity and safety of a non-hepatotoxic analgesic generating AM404 in the midbrain PAG region” (Scientific Reports, 2024).

How the values were obtained:
healthy volunteers = assay: Phase 1 trial safety and tolerability; assay type: in vivo, human; conditions: for Clinically significant abnormality (N): Adverse events / Clinically significant abnormality (N): Clinical chemistry / Clinically significant abnormality (N): ECG / Clinically significant abnormality (N): Physical exam / Clinically significant abnormality (N): Urinalysis / Clinically significant abnormality (N): Vital signs / Clinically significant abnormality (N): pharHematology: n = 6
Experimental: A randomized, double-blind, placebo-controlled Phase 1 trial (ClinicalTrials.gov identifier: NCT05484414) (02/08/2022) was conducted to assess the safety, tolerability, food effect, pharmacokinetics (PK), and pharmacodynamics (PD) of single and multiple ascending doses of SRP-001 (Quotient Sciences, Miami FL USA; Fig. 3h - k and Methods). The trial was conducted in accordance with the International Council for Harmonisation of Technical Requirements for Pharmaceuticals for Human Use (ICH), Guideline for GCP: Consolidated Guidance (E6), attained Institutional Review Board approval, and all applicable regulatory requirements for Phase 1, First in Human clinical trials. Safety measurements and plasma samples to determine PK parameters were collected throughout the study for all subjects and reviewed by the Safety Review Committee. PK stopping criteria were established to assure that systemic exposure to SRP-001 was less than or equal to the systemic exposure achieved at the NOAEL doses in the 28-day repeat-dose toxicology studies in the rat and dog. The trial’s Safety Advisory Committee has approved the publication of the Phase 1 results.
SRP-001 was administered as an oral nanosuspension to 56 healthy volunteers across five Single Ascending Dose (SAD) and two Multiple Ascending Dose (MAD) cohorts, with 42 subjects receiving SRP-001 and 14 receiving a placebo.
A two-part randomized, double-blind, placebo-controlled Phase 1 trial was conducted to assess the safety, tolerability, PK and PD of SRP-001 ascending doses (Quotient Sciences, Miami, FL, USA). The study was conducted in accordance with the International Council for Harmonisation of Technical Requirements for Pharmaceuticals for Human Use (ICH), Guideline for GCP: Consolidated Guidance (E6), and applicable regulatory requirements(s) including clinical research guidelines established by the Basic Principles defined in the U.S. 21 CFR Parts 50, 56, and 312 and the principles enunciated in the Declaration of Helsinki (revised version Fortaleza 2013). The clinical protocol and informed consent form were reviewed and approved by an Institutional Review Board (IRB; Advarra IRB, 6100 Merriweather Drive, Suite 600, Columbia, MD 21,044; Quotient Protocol No. SRP-101 and Quotient Sciences Study No. QSC205130; Quotient Sciences Miami, 3898 NW 7th Street, Miami, FL 33,126.). The study comprises a SAD (Part 1) assessment that includes a food effect assessment that contributes data to inform a subsequent MAD (Part 2) dose-ranging study. Safety measurements were collected throughout the study for all subjects. Blood samples were collected to determine the PK parameters of SRP-001 (ClinicalTrials.gov identifier: NCT05484414) (02/08/2022).
NHVs also underwent continuous ECG Holter monitoring from at least 1 h prior to dosing until 24 h post-dose, and resulting measurements were monitored consistently. All ECGs were collected electronically using a Mortara H12 + Holter monitor. Specific procedures for ECG Holter recording and extractions were provided to the Investigator by the Central ECG Laboratory, Banook Group. On Day 1, continuous Holter recording commenced at least 1 h prior to dosing until 24 h post-dose. Subjects were required to rest in the supine position with no external stimuli (e.g. music or television) for 15 min prior to the nominal time point where an ECG extraction was scheduled. This extraction was taken by the third-party Holter provider at the planned time, and therefore, no other procedures were performed within the resting period. […] Subjects were allowed to move more freely outside of the primary ECG rest periods. Comfort breaks for hygienic purposes were allowed each morning well in advance of the required supine/ECG extraction points. […]

beagle dogs = assay: Single oral dose (capsule) toxicity and pharmacokinetic study (non-GLP); assay type: in vivo; conditions: single dose 300 mg/kg
Experimental: SRP-001 was prepared into capsules for oral administration. Three experimentally non-naïve Beagle dogs, at least 7 months old and weighing 7.7 to 10 kg prior to treatment initiation, were administered a single dose of 300 mg/kg SRP-001 (Calvert Labs/Altasciences, Scott Township, PA USA). On the day of dosing, animals were observed prior to dose administration, approximately 1–3 h post-dose, and once on day 2. Body weights were recorded for all animals prior to dose administration for the preparation of the capsules. Blood for bioanalytical evaluation was collected at selected timepoints on day 1. Following the completion of the study, surviving animals were not euthanized. They were returned to the Calvert colony for an appropriate washout period before possible use in a subsequent study. […] Plasma samples were collected at seven different time points post-dose.

[1] = Cohort 1 (Regimen A), 300 mg SRP-001, Fasted
[2] = Cohort 2 (Regimen B), 600 mg SRP-001, Fasted
[3] = Cohort 3 (Regimen C), 900 mg SRP-001, Fasted
[4] = Cohort 4 (Regimen E), 2000 mg SRP-001, Fasted

**Q.** What does the source list for `CCN(CC)C(=O)c1ccccc1S(=O)(=O)NCC(=O)Nc1ccc(O)cc1` [SRP-001, N,N-diethyl-2-[[2-(4-hydroxyanilino)-2-oxo-ethyl]sulfamoyl]benzamide]?
**A.** Clinically significant abnormality (N): Adverse events (healthy volunteers; [1]): 0; Clinically significant abnormality (N): Clinical chemistry (healthy volunteers; [1]): 0; Clinically significant abnormality (N): ECG (healthy volunteers; [1]): 0; Clinically significant abnormality (N): Physical exam (healthy volunteers; [1]): 0; Clinically significant abnormality (N): Urinalysis (healthy volunteers; [1]): 0; Clinically significant abnormality (N): Vital signs (healthy volunteers; [1]): 0; Clinically significant abnormality (N): pharHematology (healthy volunteers; [1]): 0; Clinically significant abnormality (N): Adverse events (healthy volunteers; [2]): 0; Clinically significant abnormality (N): Clinical chemistry (healthy volunteers; [2]): 0; Clinically significant abnormality (N): ECG (healthy volunteers; [2]): 0; Clinically significant abnormality (N): Physical exam (healthy volunteers; [2]): 0; Clinically significant abnormality (N): Urinalysis (healthy volunteers; [2]): 0; Clinically significant abnormality (N): Vital signs (healthy volunteers; [2]): 0; Clinically significant abnormality (N): pharHematology (healthy volunteers; [2]): 0; Clinically significant abnormality (N): Adverse events (healthy volunteers; [3]): 0; Clinically significant abnormality (N): Clinical chemistry (healthy volunteers; [3]): 0; Clinically significant abnormality (N): ECG (healthy volunteers; [3]): 0; Clinically significant abnormality (N): Physical exam (healthy volunteers; [3]): 0; Clinically significant abnormality (N): Urinalysis (healthy volunteers; [3]): 0; Clinically significant abnormality (N): Vital signs (healthy volunteers; [3]): 0; Clinically significant abnormality (N): pharHematology (healthy volunteers; [3]): 0; Clinically significant abnormality (N): Adverse events (healthy volunteers; [4]): 0; Clinically significant abnormality (N): Clinical chemistry (healthy volunteers; [4]): 0; Clinically significant abnormality (N): ECG (healthy volunteers; [4]): 0; Clinically significant abnormality (N): Physical exam (healthy volunteers; [4]): 0; Clinically significant abnormality (N): Urinalysis (healthy volunteers; [4]): 0; Clinically significant abnormality (N): Vital signs (healthy volunteers; [4]): 0; Clinically significant abnormality (N): pharHematology (healthy volunteers; [4]): 0; Emesis (healthy volunteers; Phase 1 MAD cohort): no emesis; Safety assessments (vital signs, physical examinations, continuous ECG, laboratory tests) (healthy volunteers; SAD and MAD cohorts): revealed no abnormalities; Serious adverse events (SAEs) (healthy volunteers; five SAD and two MAD cohorts, 42 subjects receiving SRP-001): no serious adverse events (SAEs) reported; Tolerability (healthy volunteers; oral nanosuspension, SAD and MAD cohorts): well tolerated; Bioavailability (bioanalytical analysis of plasma) (beagle dogs): poor bioavailability; Tolerability (beagle dogs): well tolerated
